Results reported in US11311512B2, “Lymph directing prodrugs” (priority 2014, dated 2022).
Several values for one entry are separate records, joined by “and”; a condition that tells them apart may be missing. Equal entries are not always repeated. Where two headings read alike, the source gives them in different places.

What was measured:
[1] = In vitro hydrolysis by rat digestive fluid (bile and pancreatic fluid); format: in vitro ADME; details: 37° C., drug-loaded lipid formulation, up to 180 min
Description: In vitro hydrolysis of MPA related compounds was performed via incubation with rat digestive fluid. Rat digestive fluid was collected from anesthetized rats via cannulation of the common bile-pancreatic duct immediately prior to the entry of the duct into the duodenum (i.e. below the point of entry of pancreatic secretions). This allowed simultaneous collection of bile and pancreatic fluid. The digestive fluid was collected continuously for 2 h, during which time a blank lipid formulation (prepared as described in the rat lymphatic transport studies but without the addition of drug) was infused into the duodenum at a rate of 2.8 ml/h to mimic conditions following drug administration. Bile and pancreatic fluid was maintained at 37° C. and used within 0.5 h of collection for in vitro prodrug hydrolysis experiments. The hydrolysis experiments were conducted via incubation (at 37° C.) of 0.375 mL of rat digestive fluid with 0.625 ml of the drug-loaded lipid formulations (as described in the rat lymphatic transport studies). The volume ratio of digestive fluid to formulation mimicked the flow rate of bile and pancreatic fluid (˜1.5 mL/h) and the infusion rate of the intraduodenal formulations (2.8 mL/h) during the in vivo lymphatic transport studies. Aliquots of 10 μL (samples taken at 0, 2, 5, 10, 15, 30, 60, 90, 120, 180 min) were added to 990 μL of acetonitrile:water (4:1, v/v) to stop lipolysis, vortexed for 1 min and centrifuged at 4500 g for 5 min to precipitate proteins prior to analysis. The supernatant was analysed by HPLC-MS for residual compound concentrations, and the potential products of compound hydrolysis were analysed.
On incubation with digestive enzymes the monoglycerides forms of the prodrugs are formed very rapidly. The stability in simulated intestinal conditions is therefore better assessed by the stability of the monoglycerides form that is generated by the initial digestion process. The monoglycerides form must remain intact to be absorbed and re-esterified in the enterocyte prior to entry into the lymphatics. […]

[2] = for Fold increase (compared with MPA dosed group): lymphatic transport of total MPA derivatives; for Transport of total TST derivatives in lymph (% of dose): mesenteric lymph-duct cannulated female SD rats; for Fold increase (compared with control group dosed with TU): lymphatic transport of total TST derivatives
Description: Lipid formulations containing the compound of interest were then administered to the animals, the lymph collected and drug concentrations in the lymph subsequently quantified.
Lipid-based formulations of the compounds of the invention or control compounds were prepared as previously described (Trevaskis, N. L. et al., Pharmaceutical Research, 2005, 22(11), 1863-1870). Briefly, approximately 2 mg of the compound (1 mg in the case of Compound 35 and Compound 1), 40 mg oleic acid and 25 mg Tween 80 were mixed in a glass vial until equilibrated (gentle heat (below 50° C.) may be applied for a short period).
[…] This was to eliminate the potential for the relatively high and variable levels of endogenous testosterone in male rats interfering with the quantification of exogenously dosed testosterone. Rats (240-320 g) were maintained on a standard diet and fasted overnight with free access to water prior to experiments. Anaesthetised rats were placed on a heated pad at 37° C. and cannulas were inserted into the duodenum (for formulation administration and rehydration), mesenteric lymph duct (for lymph collection) and carotid artery (for blood collection) as previously described (Edwards et al. Advanced Drug Delivery Reviews 2001, 50(1), 45-60). Post-surgery, rats were re-hydrated for 0.5 h via intraduodenal infusion of normal saline at 2.8 mL/h. The lipid formulations were infused into the duodenum at 2.8 mL/h for 2 h, after which the infusion was changed to 2.8 mL/h normal saline for the remainder of the experiment. Lymph was continuously collected for 6 to 8 h into pre-weighed Eppendorf tubes containing 10 μL of 1,000 IU/mL heparin. The collection tubes were changed hourly and lymph flow was measured gravimetrically. Aliquots of hourly lymph samples were stored at −80° C. prior to assay.
Drug concentration in lymph is expressed as total drug and includes free drug and drug associated with different glycerides. This is assayed by hydrolysis of lymph (to liberate drug from any re-esterified glycerides) prior to assessment of free drug.
FIG. 1 illustrates the cumulative lymphatic transport of total testosterone related derivatives (% of administered dose) versus time in anaesthetised mesenteric lymph duct cannulated female SD rats following intraduodenal infusion of formulations from 0 to 2 h. Each Formulation contained 2 mg of the exemplified compound or the control, testosterone undecanoate (TU), dispersed in 40 mg oleic acid, 25 mg Tween 80 and 5.6 ml PBS.

[3] = Pharmacokinetic study in rats, testosterone plasma concentrations after oral gavage; details: testosterone in plasma, oral gavage; for AUC0-24 h fold increase compared with TU group: SD female rats, dose-normalized; for Tmax / AUC0-24 h / Cmax: conscious carotid artery cannulated SD female rats; for AUC0-24 h / Cmax: normalized to 2 mg/kg equivalent testosterone dose
Description: In order to assess the oral bioavailability of the compounds of the invention, pharmacokinetic studies were conducted in rats and dogs. […] The rats were then allowed to regain consciousness and fasted overnight prior to the commencement of experiments with free access to water. […] The oral formulation of Compound 2 contained 3 mg of the compound, 20 mg oleic acid and 12.5 mg Tween 80 dispersed in 1 mL PBS. Blood samples were collected from the carotid artery cannula from 5 min prior to administration up to 24 h post-dosing and centrifuged at 5000 rpm for 5 min to separate plasma. […] Plasma samples were stored at −80° C. prior to assay by HPLC-MS-MS. In this case samples were assayed for free drug (i.e. non-glyceride associated drug) and were not hydrolysed prior to assay (as was the case with the lymph samples).
FIG. 12 illustrates dose-normalized testosterone plasma concentrations following oral gavage of formulations to conscious, carotid artery cannulated female SD rats. Formulations contained 1 mg of TU, or 2 mg of compounds of the invention containing testosterone dispersed in 40 mg oleic acid, 25 mg Tween 80 and 2 ml PBS. Doses are normalized to a 2 mg/kg equivalent dose of testosterone. Data are shown as mean±SEM for all groups (n=4 or 3 for each group). The embedded figure is the plot of the dose-normalized plasma AUC0-24h (nmol×h/L) of testosterone in the form of a bar graph.

[4] = cited from earlier work
[5] = Pharmacokinetic study in greyhound dogs, testosterone plasma concentrations after oral administration; format: in vivo; details: fed state
Description: For the dog studies, female greyhound dogs were held in a large animal research facility for at least 5 days prior to the commencement of studies. The dogs were allowed to acclimatise for at least 4 days prior to commencing the study. The dogs were fasted for 12 h up to 30 min prior to drug administration. For the fed state studies (n=4 for TU or Compound 13), dogs received 680 g of standard commercial dog food containing 5% fat min prior to drug administration. In the fasted study (n=1 for Compound 13), the dog remained fasted until after 4 h post-dose. Water was available ad libitum throughout the study for all dogs. On the study day, a 20 gauge intravenous catheter was inserted into a cephalic vein to allow blood sampling. The dogs were free to move around (not restrained) after cannulation. For the fed state studies, Andriol Testocaps (the commercial TU product) or Compound 13 was given to the dogs. Andriol Testocaps were supplied by Merck Sharp & Dohme (Australia) Pty Limited and were formulated as soft gelatin capsule containing a 12.0% (w/w) solution of TU in lauroglycol FCC/castor oil [40:60% (w/w)] with the individual capsule composition being 40 mg of TU, lauroglycol FCC, castor oil, gelatin, glycerol, and sunset yellow (E110). Compound 13 was prepared in a long-chain lipid based self-emulsifying drug delivery system (SEDDS) that consisted of 30.5% w/w soybean oil, 30.5% w/w Maisine 35-1, 31.6% w/w Cremophor EL and 7.4% w/w ethanol. Formulations were filled into hard gelatin capsules. Two capsules of Andriol Testocaps containing 80 mg TU or two capsules of Compound 13 containing a total dose of 90 mg Compound 13 dissolved in 2 g of the SEDDS formulation were administrated to the fed greyhound dog by placing the capsules as far posterior to the pharynx as possible, closing the mouth and rubbing the throat to stimulate swallowing. Subsequently 50 mL of water was administered orally via a syringe. Two capsules of Compound 13 formulation were also administrated to the fasted dogs for fasted state studies. After oral administration, blood samples (approx. 3 mL each) were taken via the cephalic vein cannula from 5 min prior to administration up to 10 hours post-dosing. The patency of the catheters was maintained by flushing with a small volume of heparinised saline (1-2 IU/mL) after each blood sample was withdrawn. Blood samples at 24 h were taken by venepuncture. Plasma was separated by centrifugation and aliquots of each plasma sample were transferred into eppendorf tubes and store at −80° C. prior to analysis by LC-MS-MS.

[6] = anaesthetised, mesenteric lymph-duct cannulated male SD rats, intraduodenal infusion 0-2 h, cumulative over 8 h
[7] = male SD rats, intraduodenal infusion
[8] = anaesthetised, intraduodenal infusion 0-2 h, cumulative over 8 h
[9] = female SD rats, intraduodenal infusion

## CCCCCCCCCCCCCCCC(=O)OCC(COC(=O)CCCCCCCCCCCCCCC)OC(=O)CCCCCOC(=O)CC/C(C)=C/Cc1c(O)c2c(c(C)c1OC)COC2=O [Compound 32]
[1]
  stability of the monoglyceride form during in vitro incubation with freshly collected rat bile and pancreatic fluid: relatively rapidly degraded
[2]; [6]
  Transport of total MPA derivatives in lymph (% of dose): 9.6 % of dose and 9.6 ± 1.4 % of dose
[2]; [7]
  Fold increase (compared with MPA dosed group): 57.5 fold
[2]; male SD rats, intraduodenal infusion, co-administration with 0.6 mg of JZL184 and 9 μg of orlistat
  Transport of total MPA derivatives in lymph (% of dose): 18.8 % of dose

## CCCCCCCCCCCCCCCC(=O)OCC(COC(=O)CCCCCCCCCCCCCCC)OC(=O)CCCCOC(=O)CC/C(C)=C/Cc1c(O)c2c(c(C)c1OC)COC2=O [Compound 31]
[1]
  stability of the monoglyceride form during in vitro incubation with freshly collected rat bile and pancreatic fluid: relatively rapidly degraded
[2]; [6]
  Transport of total MPA derivatives in lymph (% of dose): 8.2 % of dose and 8.2 ± 1.3 % of dose
[2]; [7]
  Fold increase (compared with MPA dosed group): 48.9 fold

## CCCCCCCCCCC(=O)O[C@H]1CC[C@H]2[C@@H]3CCC4=CC(=O)CC[C@]4(C)[C@H]3CC[C@]12C [TU, testosterone undecanoate, reference compound]
[3]
  AUC0-24 h fold increase compared with TU group: 1.0 fold
  Tmax: 1.5 ± 0.0 h
  AUC0-24 h: 6.8 ± 0.4 nM·h
  Cmax: 5.6 ± 0.5 nM
[4]
  bioavailability of testosterone after oral administration of the undecanoate ester: < 5%
[5]; greyhound dogs, dose-normalized
  AUC0-24 h fold increase compared with TU group: 1 fold
[5]; oral capsules, conscious greyhound dogs, normalized to 2 mg/kg equivalent testosterone dose, TU as Andriol Testocaps, Compound 13 in SEDDS
  Cmax: 75.4 ± 12.8 nM
[5]; oral capsules, greyhound dogs
  Tmax: 1.8 ± 0.1 h
[5]; oral capsules, greyhound dogs, normalized to 2 mg/kg equivalent testosterone dose
  AUC0-24 h: 141.1 ± 22.1 nM·h
[2]; [8]
  Transport of total TST derivatives in lymph (% of dose): 1.9 ± 0.3 % of dose
[2]; [9]
  Fold increase (compared with control group dosed with TU): 1.0 fold

## CCCCCCCCCCCCCCCC(=O)OCC(COC(=O)CCCCCCCCCCCCCCC)OC(=O)CC(C)CC(=O)O[C@H]1CC[C@H]2[C@@H]3CCC4=CC(=O)CC[C@]4(C)[C@H]3CC[C@]12C (some centres unmarked) [Compound 18]
[3]
  AUC0-24 h fold increase compared with TU group: 0.3 fold
  Tmax: 1.3 ± 0.2 h
  AUC0-24 h: 2.0 ± 0.1 nM·h
  Cmax: 1.8 ± 0.3 nM
[1]
  stability of the monoglyceride form during in vitro incubation with freshly collected rat bile and pancreatic fluid: significantly stabilised the monoglyceride intermediates
[2]; [8]
  Transport of total TST derivatives in lymph (% of dose): 28.0 ± 3.4 % of dose
[2]; [9]
  lymphatic transport, fold higher than straight chain counterpart Compound 10: approximately 2 fold
  Fold increase (compared with control group dosed with TU): 14.9 fold
